Where a SMILES comes first, the peptide text is derived from it.
Tests used:
[1] = tested on: bleomycin-induced lung fibrosis in C57BL/6 mice; test: Bleomycin mouse model of pulmonary fibrosis, prevention model (dosing day 7 to 21); assay type: in vivo; conditions: for collagen levels in the lung (Masson's blue trichrome), dose response: 25, 50 or 75 μg/kg daily IP, day 7 to 21
Procedure: (§1) A mouse model of pulmonary fibrosis was generated by administering 0.025 U of bleomycin/PBS intratracheally to C57BL/6 mice. […] At 21 day post bleomycin delivery (for prevention model) or 28 post bleomycin delivery (for treatment model), groups of mice were sacrificed with a sodium pentobarbital injection (120 mg/kg) and the chest cavity was opened. The right mainstem bronchus was ligated and the right lung was removed. The trachea was cannulated and the left lung was perfused with 4% formaldehyde at 21 cm H2O pressure. The tissue blocks then were embedded in paraffin, and […] sections were prepared for staining. Sections from each animal were stained with hematoxylin and eosin (H&E) to visualize cells or with Masson's Trichrome staining to highlight collagen deposition. […] Stained sections were mounted onto a labeled glass slide with organic mounting medium.
Briefly, fibrotic loci in the lungs of the mice were induced by delivering intratracheally about 0.025 U of bleomycin (dissolved in PBS) to C57BL/6 mice. […] Briefly, mice were sacrificed with a sodium pentobarbital injection (120 mg/kg) and the chest cavity was opened. The right mainstem bronchus was ligated and the right lung was removed. The trachea was cannulated and the left lung was perfused with 4% formaldehyde at 21 cm H2O pressure. The tissue blocks then were embedded in paraffin, and […] sections were prepared, and stained with hematoxylin and eosin (H&E; for pathological examination) or Masson's Trichrome (for collagen staining)
Next, total collagen levels in the lungs of the bleomycin-injured mice (FIG. 12) were analyzed quantitatively by computing a constant conversion factor (7.5) for collagen from hydroxyproline concentrations (Neuman R. and Logan M, J Biol Chem., 186(2):549-56, 1950, incorporated by reference).
Next, the effect of increasing doses of MK2 peptide inhibitors on collagen deposition was examined in vivo using the bleomycin mouse model of idiopathic pulmonary fibrosis (prevention model). Briefly, C57-BL/6 mice were subjected to bleomycin injury at day 0.

[2] = tested on: splenic T cells; test: Autologous mixed lymphocyte reaction of splenic T cells from treated bleomycin mice; assay type: in vivo, mouse; conditions: day 7 to 21
Description: Recent studies highlighted a key role for T lymphocytes in bleomycin-induced fibrosis (Wilson, M. et al., The Journal of Experimental Medicine, 207(3): 535-552, 2010). […] Specifically, the ability of C57BL/6 purified antigen-presenting cells to induce proliferation in C57BL/6 T lymphocytes was examined in the assay.
C57-BL/6 mice were subjected to bleomycin injury at day 0. […] Splenic T cells were isolated and cultured alone or in the presence of autologous antigen presenting cells (APCs from C57-BL/6 mice) or stimulated with antibodies against CD3 (α-CD3) for 48 h. The cells then were radiolabeled with […] thymidine for 16 h and assessed for proliferation rates.

[3] = tested on: bleomycin-induced lung fibrosis in C57BL/6 mice; test: Bleomycin mouse model of pulmonary fibrosis, treatment model (dosing day 14 to 28); assay type: in vivo; set-up: collagen deposition (hydroxyproline assay, whole left lung): dose or concentration left out as unconfirmed
Procedure: as §1
The classic bleomycin model, as depicted in FIG. 10, has been used widely in the literature in the pre-fibrotic stage to test efficacy of any intervention. […]
Next, collagen deposition was determined quantitatively by using the standard hydroxyproline assay with whole left lung. Total collagen (soluble and insoluble) deposition was assessed by analyzing hydroxyproline concentrations in murine lungs day 28 post bleomycin injury.

[4] = tested on: TNF-α; test: Circulating inflammatory cytokines, bleomycin treatment model; assay type: in vivo, mouse; conditions: intraperitoneal or nebulized; 24 hours after final administration
[5] = tested on: α-SMA; test: α-SMA immunostaining of lung sections, bleomycin treatment model; assay type: in vivo, mouse; conditions: 50 μg/kg/day IP or NEB, day 14 to 28; vs untreated bleomycin-injured lungs
Description: C57-BL/6 mice were subjected to bleomycin injury at day 0. […] Formalin-fixed lung tissue sections were immunostained against α-SMA. Control staining was with biotinylated secondary IgG antibody. Streptavidin-conjugated horseradish peroxidase was used with 3,3′-diaminobenzidene as substrate and nuclei was counterstained with hematoxylin. Original magnifications: 20×

[6] = tested on: human fetal lung fibroblasts (IMR-90); test: TGF-β-mediated fibronectin expression in IMR-90 cells; assay type: cell-based; conditions: 1 h pre-treatment, TGF-β1 2 ng/ml 72 h
Procedure: Fibronection was measured as secreted fragments in the conditioned media. Equal amounts (14 μg) of total proteins from the conditioned media were loaded in each lane.

[7] = tested on: Porcine airway smooth muscle (PASM); test: ISO-induced relaxation of airway smooth muscle rings in muscle bath; conditions: 100 μM for 1 hr; CCh-contracted rings; n=3
Description: Porcine airway smooth muscle (PASM) rings were isolated from second generation bronchi, cartilage was peeled off and then hung in a muscle bath and equilibrated in Kreb's buffer for 3 hrs. […] ISO is a β-adrenergic agonist that relaxes almost all varieties of […] when the tone is high, but its action is most pronounced on bronchial and gastrointestinal smooth muscle. It prevents or relieves bronchoconstrution. Its effect in asthma maybe due in part to an additional action to inhibit antigen-induced release of histamine and other mediators of inflammation; this action is shared by β2-receptor-selective stimulants. Goodman & Gilman's The Pharmacological Basis of Therapeutics, Joel G. Hardman and Lee E. Limberd, Eds., 10th Ed. […] Force was normalized to the weight and length of the tissue and converted to stress and relaxation induced was calculated.

[8] = tested on: human airway smooth muscle (HASM); test: ISO-induced relaxation of intact airway tissues in muscle bath; conditions: 200 μM pre-treatment for 30 min; n=4
Procedure: (A) Representative tracings of force generation. Cumulative contractile responses to CCH (B) and % relaxation to ISO doses (C). n=4; p<0.05. Inset is an immunoblot showing MK2 phosphorylation level. HASM was hung in the muscle bath and frozen. MK2 phosphorylation was determined by SDS PAGE and immunoblotting.

[9] = molecular target: CK1γ2(h) (Homo sapiens, UniProt P78368); test: Kinase Profiling Assay; assay type: biochemical; conditions: 100 μM peptide
Summary of the method: (§2)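 MK2 inhibitory peptides were screened for specificity across a commercial panel of 266 human kinases, and each kinase activity measurement was run in duplicate.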

[10] = molecular target: PAK6(h) (Homo sapiens, UniProt Q9NQU5); test: Kinase Profiling Assay; assay type: biochemical; conditions: 100 μM peptide
Summary of the method: as §2

[11] = nebulization or intraperitoneal, daily day 7 to 21, lung at day 21

CK1γ2(h), sequence (P78368 whole entry): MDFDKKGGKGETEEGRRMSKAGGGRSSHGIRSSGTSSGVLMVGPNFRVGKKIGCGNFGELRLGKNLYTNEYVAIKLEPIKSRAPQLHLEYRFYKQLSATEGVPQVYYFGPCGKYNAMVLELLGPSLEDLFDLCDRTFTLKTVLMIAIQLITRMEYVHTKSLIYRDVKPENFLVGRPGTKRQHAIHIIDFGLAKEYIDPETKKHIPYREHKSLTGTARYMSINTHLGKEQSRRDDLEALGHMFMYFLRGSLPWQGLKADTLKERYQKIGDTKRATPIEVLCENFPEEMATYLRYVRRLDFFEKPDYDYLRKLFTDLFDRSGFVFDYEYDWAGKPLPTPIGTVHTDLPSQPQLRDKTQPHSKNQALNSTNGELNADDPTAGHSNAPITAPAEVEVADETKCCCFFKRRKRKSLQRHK
PAK6(h), sequence (Q9NQU5 whole entry): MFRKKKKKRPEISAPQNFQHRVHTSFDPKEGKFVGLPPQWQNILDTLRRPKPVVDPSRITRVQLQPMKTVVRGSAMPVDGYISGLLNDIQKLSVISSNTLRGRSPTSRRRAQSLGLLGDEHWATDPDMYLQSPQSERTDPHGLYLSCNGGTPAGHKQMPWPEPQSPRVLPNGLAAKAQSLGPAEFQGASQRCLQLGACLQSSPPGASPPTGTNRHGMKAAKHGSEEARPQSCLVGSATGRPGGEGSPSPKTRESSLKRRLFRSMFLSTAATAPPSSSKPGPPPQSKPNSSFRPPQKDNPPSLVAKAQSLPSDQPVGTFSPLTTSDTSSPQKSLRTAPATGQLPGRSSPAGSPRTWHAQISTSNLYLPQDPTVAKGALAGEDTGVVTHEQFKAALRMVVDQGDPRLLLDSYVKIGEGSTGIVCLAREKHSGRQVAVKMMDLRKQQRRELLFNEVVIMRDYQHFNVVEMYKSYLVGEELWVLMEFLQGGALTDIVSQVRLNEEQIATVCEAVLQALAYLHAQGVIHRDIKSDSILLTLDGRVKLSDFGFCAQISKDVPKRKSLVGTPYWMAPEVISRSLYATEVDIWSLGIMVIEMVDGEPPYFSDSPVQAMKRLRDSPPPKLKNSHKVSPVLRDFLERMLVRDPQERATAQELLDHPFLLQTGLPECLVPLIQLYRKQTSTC

## CC(C)C[C@H](NC(=O)[C@H](C)NC(=O)[C@H](CCCCN)NC(=O)[C@H](C)NC(=O)[C@H](CCCNC(=N)N)NC(=O)[C@H](C)NC(=O)[C@H](CCC(N)=O)NC(=O)[C@H](CCCNC(=N)N)NC(=O)[C@H](C)NC(=O)[C@H](C)NC(=O)[C@H](C)NC(=O)[C@H](CCCNC(=N)N)NC(=O)[C@H](C)NC(=O)[C@@H](N)Cc1ccc(O)cc1)C(=O)N[C@@H](C)C(=O)N[C@@H](CCCNC(=N)N)C(=O)N[C@@H](CCC(N)=O)C(=O)N[C@@H](CC(C)C)C(=O)NCC(=O)N[C@H](C(=O)N[C@@H](C)C(=O)N[C@@H](C)C(=O)O)C(C)C [MMI-0100] (H-YARAAARQARAKALARQLGVAA-OH; N-terminus and C-terminus assumed)
[1]
  collagen levels in the lung (Masson's blue trichrome), dose response: decrease in collagen levels
[1]; [11]
  collagen accumulation (Masson's Trichrome staining): reduced collagen accumulation
  fibrotic loci formation (H&E staining): significantly reduced development of fibrotic loci formation
[1]; nebulized or systemic (IP), post-inflammatory/pre-fibrotic stage, vs bleomycin control
  total collagen levels in the lungs (from hydroxyproline): significantly decreased collagen deposition
[2]; 50 μg/kg/day intraperitoneal (systemic)
  proliferation of T cells in the presence of antigen presenting cells: significantly reduced
[2]; 50 μg/kg/day nebulizer (inhaled)
  proliferation of T cells in the presence of antigen presenting cells: not by the inhaled mode
[2]; 50 μg/kg/day
  toxicity (proliferative response of splenic T cells to α-CD3): no toxicity
[3]; IP or NEB from day 14, day 28 post bleomycin
  collagen deposition (hydroxyproline assay, whole left lung): significantly arrested further progression of collagen deposition
[3]; intraperitoneal or nebulized, daily day 14 to 28
  lung architecture and collagen distribution (H&E, Masson's blue trichrome): clearer lung parenchyma
[4]
  plasma level of TNF-α: significantly reduced
[5]
  level of α-SMA in lungs: significantly attenuated
[6]
  protein level of fibronectin (conditioned media): decreases in the levels
[7]
  enhancement of ISO induced relaxation: 13%
[8]
  ISO-induced relaxation: enhances ISO-induced relaxation

## FAKLAARLYRKALARQLGVAA [MMI-0300]
[9]
  CK1γ2(h) % activity: 123%

## KAFAKLAARLYRKALARQLGVAA [MMI-0400]
[10]
  PAK6(h) % activity: 100%

## YARAAARQARAKALNRQLGVA (Mammalian) [MMI-0200]
[1]
  collagen levels in the lung (Masson's blue trichrome), dose response: did not reduce, but rather increased the collagen deposition
[6]
  protein level of fibronectin (conditioned media): no changes in the protein level

— patent US10562947B2, “Compositions and methods for preventing or treating diseases, conditions or processes characterized by aberrant fibroblast proliferation and extracellular matrix deposition” (MOERAE MATRIX, INC., priority 2011, dated 2020)
